Assays:
[1] = tested on: colon cancer cells; settings: Et3PAuCl alone; ACS Med. Chem. Lett. 8: 997-1001, 2017; cited from earlier work
[2] = tested on: mouse insulinoma MIN6 cells; assay: Viable cell activity by Calcein-AM fluorescence in MIN6 cells; assay type: cell-based; settings: for cellular activity expressed as Calcein intensity: MIN6 cells at 5 DIV, 1,000 μM, vs negative control KRB; for cellular activity as assessed with Calcein: 30 minutes, vs KRB alone
Protocol: Effects of E2-ADG (synthesized in Example 2) and E2-ALG (synthesized in Example 4) on proliferation of cells were examined. A pancreatic beta cell line (insulinoma) MIN6 from mouse pancreas (Miyazaki J. et al., Endocrinology 127: 126-132, 1990) was used as the cells, and all experiments were performed using early passage cells with a passage number of 10 or less.
(§1) In this experiment, approximately 3,000 MIN6 cells per well were seeded in each well of a 96-well plate. When 5 DIV elapsed from initiation of culture, wells to which E2-ALG was administrated and wells to which E2-ADG was administrated were arranged in the same plate with minimal external disturbance, and administration was performed according to the previously established method (Sasaki, A. et al., Human Cell 2016, 29, 37-45). The E2-ALG was dissolved in a buffer to a concentration of 1,000 μM, administered to the MIN6 cells for 10 or 30 minutes, and then washed out with a buffer solution without the E2-ALG. Meanwhile, the E2-ADG at a concentration of 1,000 μM was administered in the same manner. Carbenoxolone was pre-dissolved in a buffer solution for the purpose of excluding uptake via Hemichannel and Gap junction (Sasaki, A. et al., Human Cell 2016, 29, 37-45).
A change in cellular activity was assessed using a live cell marker Calcein-AM. The Calcein-AM is permeable to a cell membrane, and after entering a cell, an AM moiety is cleaved by an esterase activity of the cell to produce Calcein which emits green fluorescence. The Calcein-AM was applied to the MIN6 cells according to a conventional method, green fluorescence emitted by the cells was quantitatively measured using a confocal quantitative image cytometer CellVoyager CQ1 (Yokogawa Electric Corporation), and image analysis was performed using software attached to the CQ1. A difference between an E2-ALG administration group and an E2-ADG administration group was statistically compared using Stat View 5.0. The Bonferroni-Dunn test was used for the statistical comparison. A value shown by MIN6 cells at the same time as above in a Krebs-Ringer buffer (KRB) solution without E2-ALG or E2-ADG was used as a negative control.
(§2) An administration test was performed in the same manner as in Example 5-1, except that M2-ADG (synthesized in Example 1) was used instead of E2-ADG, and M2-ALG (synthesized in Example 3) was used instead of E2-ALG. However, the M2-ADG or the M2-ALG was administered for 30 minutes after 4 DIV from initiation of culture, and a concentration of the M2-ADG or the M2-ALG was 10 μM, 100 μM, or 1,000 μM.

[3] = tested on: mouse insulinoma MIN6 cells; assay: Cell death by Propidium Iodide (PI) signal in MIN6 cells; assay type: cell-based; settings: for occurrence of cell death (PI) / PI-positive cell death: MIN6 cells at 5 DIV, 1,000 μM; for occurrence of cell death (PI): both 10-minute and 30-minute administrations, vs negative control KRB; for effect on the cells (proportion of dead cells, PI) / cytotoxicity (PI) eliminated by PHT: MIN6 cells at 11 DIV; for effect on the cells (proportion of dead cells, PI) / proportion of dead cells expressed as a PI value / cytotoxicity (PI) eliminated by PHT: 90 minutes; for effect on the cells (proportion of dead cells, PI) / proportion of dead cells expressed as a PI value: vs KRB solution alone; for proportion of dead cells expressed as a PI value: MIN6 cells at 11 DIV, 1,000 μM; for cytotoxicity (PI) eliminated by PHT: compound 1,000 μM, PHT 150 μM
Protocol: as §1
An extent of occurrence of cell death was assessed using Propidium Iodide (PI), a red dye that is impermeable to a cell membrane. The PI was applied to the MIN6 cells simultaneously with the Calcein-AM. The principle of assessing cell death using PI is as follows. […] However, when the PI nonspecifically enters a cell due to loss of integrity of a cell membrane caused by deterioration of a cell state, the PI binds to a nucleus of the cell, causing the nucleus to emit red fluorescence. A degree of the red fluorescence was quantitatively measured using the CellVoyager CQ1, and image analysis was performed using the software attached to the CQ1. Additionally, the degree of occurrence of cell death was evaluated by statistically comparing the control group with the administration groups or the E2-ALG administration group with the E2-ADG administration group.
Using MIN6 cells with a passage number of 10 or less, E2-ALG or E2-ADG was applied to the MIN6 cells at a concentration of 1,000 μM for 90 minutes at 11 DIV of culture at a time when spheroids with a diameter of 100 μm or more are normally formed. Specifically, approximately 1,000 MIN6 cells per well were seeded in each well of a 96-well plate and E2-ALG was dissolved in a buffer to a concentration of 10 μM or 1,000 μM at 11 DIV, administered to the MIN6 cells for 90 minutes, and then rapidly washed out with a buffer solution without E2-ALG. Similarly, E2-ADG was applied simultaneously to other wells in the same plate. A cell death marker PI was used to statistically compare a control group with administration groups or an E2-ALG administration group with an E2-ADG administration group (FIG. 3).
Whether cell death in MIN6 cells caused by E2-ALG and E2-ADG was via a specific transport mechanism that is inhibited by PHT was analyzed on the same plate. […] The E2-ADG was also tested simultaneously in the same manner on the same plate and both were compared to a control.
as §2

[4] = tested on: nutritional deficit pancreatic cancer cells; settings: Onodera, T. et al. J. Biol. Chem. 295, 16678-16690, 2020; cited from earlier work
[5] = MIN6 cells at 4 DIV, 10 μM, 30 minutes, vs negative control
[6] = MIN6 cells at 4 DIV, 100 μM, 30 minutes, vs negative control
[7] = MIN6 cells at 4 DIV, 1,000 μM, 30 minutes

CCP(CC)CC.[Au+].[Cl-] [Et3PAuCl, chloro(triethylphosphine)gold(I)]
cytotoxicity to colon cancer cells [1]: cytotoxic

CCP(CC)CC.OC[C@@H]1OC(O)[C@@H]([S][Au])[C@H](O)[C@H]1O (stereo partly drawn) [Compound E2-ALG]
cellular activity expressed as Calcein intensity ([2]; 10-minute administration): slightly decreased an average value of the cellular activity compared to the negative control group, but there was no statistically significant difference | cellular activity expressed as Calcein intensity ([2]; 30-minute administration): the cellular activity was clearly decreased compared to the negative control | occurrence of cell death (PI) [3]: no statistically significant difference | effect on the cells (proportion of dead cells, PI) ([3]; 10 μM): larger than that of the negative control (the KRB solution alone) as an average value, but not significantly different | proportion of dead cells expressed as a PI value [3]: significant increase in a proportion of dead cells | cytotoxicity (PI) eliminated by PHT [3]: approximately 75%

CC[PH](CC)(CC)[Au][S][C@@H]1OC(CO)[C@@H](O)[C@H](O)C1O (stereo partly drawn) [DGG, reference compound]
PI-positive cell death ([3]; 10 minutes): more PI-positive cell death than the negative control | PI-positive cell death ([3]; 30 minutes): distinct PI-positive cell death

CC(=O)OC[C@H]1O[C@@H]([S-])[C@H](OC(C)=O)[C@@H](OC(C)=O)[C@@H]1OC(C)=O.CCP(CC)CC.[Au+] [Auranofin]
effect in nutritional deficit pancreatic cancer cells [4]: effective

CCP(CC)CC.OC[C@H]1OC(O)[C@H]([S][Au])[C@@H](O)[C@@H]1O (stereo partly drawn) [Compound E2-ADG]
cellular activity expressed as Calcein intensity ([2]; 10-minute administration): slightly lower than that for the E2-ALG, but there was no statistically significant difference therebetween | cellular activity expressed as Calcein intensity ([2]; 30-minute administration): clear decrease in cellular activity | occurrence of cell death (PI) [3]: no statistically significant difference | effect on the cells (proportion of dead cells, PI) ([3]; 10 μM): larger than that of the negative control (the KRB solution alone) as an average value, but not significantly different | proportion of dead cells expressed as a PI value [3]: significant increase in a proportion of dead cells | cytotoxicity (PI) eliminated by PHT [3]: approximately 75%

CP(C)C.OC[C@H]1OC(O)[C@H]([S][Au])[C@@H](O)[C@@H]1O (stereo partly drawn) [Compound M2-ADG]
cellular activity as assessed with Calcein ([2]; MIN6 cells at 4 DIV, 10 μM): no significant difference in cellular activity | cellular activity as assessed with Calcein ([2]; MIN6 cells at 4 DIV, 100 μM): no significant difference in cellular activity | cellular activity as assessed with Calcein ([2]; MIN6 cells at 4 DIV, 1,000 μM): significant decrease in cellular activity | degree of cell death (PI) [3, 5]: no difference in a degree of cell death | degree of cell death (PI) [3, 6]: an average value increased, but there was still no significant difference from the negative control | degree of cell death (PI) [3, 7]: clear cell death was observed

CC[PH](CC)(CC)[Au][S][C@H]1O[C@@H](CO)[C@H](O)[C@@H](O)[C@@H]1O [LGG, reference compound]
PI-positive cell death ([3]; 10 minutes): PI-positive cell death comparable to that of the negative control | PI-positive cell death ([3]; 30 minutes): only about as much PI-positive cell death as a negative control group

CP(C)C.OC[C@@H]1OC(O)[C@@H]([S][Au])[C@H](O)[C@H]1O (stereo partly drawn) [Compound M2-ALG]
cellular activity as assessed with Calcein ([2]; MIN6 cells at 4 DIV, 10 μM): no significant difference in cellular activity | cellular activity as assessed with Calcein ([2]; MIN6 cells at 4 DIV, 100 μM): no significant difference in cellular activity | cellular activity as assessed with Calcein ([2]; MIN6 cells at 4 DIV, 1,000 μM): significant decrease in cellular activity | degree of cell death (PI) [3, 5]: no difference in a degree of cell death | degree of cell death (PI) [3, 6]: an average value increased, but there was still no significant difference from the negative control | degree of cell death (PI) [3, 7]: clear cell death was observed

— US20240327450A1, “GLUCOSE DERIVATIVES AND ANTICANCER AGENT USING SAME” (ORBIO CORPORATION, priority 2021, published 2024)
